Measured values published in patent US8921406B2, “5-ring heteroaromatic compounds and their use as binding partners for 5-HT5 receptors” (AbbVie Deutschland GmbH & Co. KG, priority 2005, dated 2014).
Where a name gives a salt, the structure may show the parent alone.

Target: T1, h5-HT5A receptor (Homo sapiens, UniProt P47898)
T1 construct: expressed in transfected cells
Assay: h5-HT5A-[3H]5-CT binding assay
Conditions: membranes of HEK293 cells expressing h5-HT5A; 2.5 nM [3H]5-CT; read-out: Binding affinity 5-HT5A (Ki)
Experimental: 1. h5-HT5A-[^3H]5-CT Binding Assay
Membranes of HEK293 cells which permanently express the h5-HT5A receptor gene were incubated in 100 mM tris-HCl buffer (pH 7.7) containing 1 mM EDTA, in the presence of 2.5 nM [^3H]5-CT (total volume 600 μL). The total binding is defined as the binding that is observed when the membranes are incubated in the presence of only the radioligand. The inhibition induced by the compound is determined by incubation of cell membranes in the presence of the radioligand and various concentrations of the compound of interest. Nonspecific binding is defined as the [^3H]5-CT binding obtained by incubation of the membranes, the same as for the total binding, but in the presence of 10 μM methiothepine. Following incubation for 75 min at 30° C., the membrane suspension was filtered through a GF/B-Filter coated with 0.03% PEI, using a Skatron® harvesting system. The residual radioactivity in the filter was quantified by liquid scintillation counting.
Various concentrations of the test substances were used in both assays, and the Ki or IC50 values were determined.

T1 sequence (P47898 whole entry): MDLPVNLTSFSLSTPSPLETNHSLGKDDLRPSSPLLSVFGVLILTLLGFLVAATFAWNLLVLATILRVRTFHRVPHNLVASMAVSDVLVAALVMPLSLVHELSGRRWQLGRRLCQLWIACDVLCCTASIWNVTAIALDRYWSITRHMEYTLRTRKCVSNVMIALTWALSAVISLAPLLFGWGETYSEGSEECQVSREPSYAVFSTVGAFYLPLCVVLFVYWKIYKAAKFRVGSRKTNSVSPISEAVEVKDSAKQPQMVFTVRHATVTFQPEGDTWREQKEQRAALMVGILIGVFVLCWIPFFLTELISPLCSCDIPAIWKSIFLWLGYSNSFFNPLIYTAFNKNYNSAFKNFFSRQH

Structure (SMILES) | Ki [nM]
COc1ccccc1Cn1cc(-c2ccc(Br)cc2)nc1N [Example 1, 4-(4-Bromophenyl)-1-(2-methoxybenzyl)-1H-imidazole-2-ylamine] | < 600
COc1ccccc1Cn1cc(-c2ccc([N+](=O)[O-])cc2)nc1N [Example 2, 1-(2-Methoxybenzyl)-4-(4-nitrophenyl)-1H-imidazole-2-ylamine] | < 600
COc1ccccc1Cc1nc(-c2ccccc2)[nH]c1N [Example 3, 5-(2-Methoxybenzyl)-2-phenyl-3H-imidazole-4-ylamine] | < 600
COc1ccccc1Cc1cn(-c2ccccc2)nc1N [Example 4, 4-(2-Methoxybenzyl)-1-phenyl-1H-pyrazole-3-ylamine] | > 600
COc1ccccc1Cn1nc(-c2ccccc2)nc1N [Example 5, 2-(2-Methoxybenzyl)-5-phenyl-4H-[1,2,4]triazole-3-ylamine] | > 600
COc1ccc(-n2cc(Cc3ccccc3OC)c(N)n2)cc1 [Example 6, 4-(2-Methoxybenzyl)-1-(4-methoxyphenyl)-1H-pyrazole-3-ylamine] | > 600
COc1ccccc1Cc1cn(-c2ccc(F)cc2)nc1N [Example 7, 1-(4-Fluorophenyl)-4-(2-methoxybenzyl)-1H-pyrazole-3-ylamine] | > 600
COc1cccc(OC)c1Cn1cc(-c2ccccc2)nc1N [Example 8, 1-(2,6-Dimethoxybenzyl)-4-phenyl-1H-imidazole-2-ylamine hydrochloride] | < 600
COc1ccccc1Cn1cc(-c2ccccc2)nc1NC(C)=O [Example 9, N-[1-(2-Methoxybenzyl)-4-phenyl-1H-imidazole-2-yl]acetamide] | > 600
COc1ccccc1Cn1cc(-c2ccccc2)nc1N [Example 10, 1-(2-Methoxybenzyl)-4-phenyl-1H-imidazole-2-ylamine hydrochloride] | < 600
COc1ccccc1Cn1cc(C(C)(C)C)nc1N [Example 11, 4-tert-Butyl-1-(2-methoxybenzyl)-1H-imidazole-2-ylamine] | > 600
COc1ccccc1Cn1cc(-c2ccc(F)cc2)nc1N [Example 12, 4-(4-Fluorophenyl)-1-(2-methoxybenzyl)-1H-imidazole-2-ylamine] | < 600
COc1ccccc1Cn1cc(-c2cccs2)nc1N [Example 13, 1-(2-Methoxybenzyl)-4-thiophene-2-yl-1H-imidazole-2-ylamine] | < 600
COc1ccccc1Cn1c(N)nc(-c2ccccc2)c1C [Example 14, 1-(2-Methoxybenzyl)-5-methyl-4-phenyl-1H-imidazole-2-ylamine] | < 600
COc1ccccc1Cn1cc(-c2ccco2)nc1N [Example 15, 4-Furan-2-yl-1-(2-methoxybenzyl)-1H-imidazole-2-ylamine hydrochloride] | < 600
COc1ccccc1Cn1cc(-c2ccc3ccccc3c2)nc1N [Example 16, 1-(2-Methoxybenzyl)-4-naphthalene-2-yl-1H-imidazole-2-ylamine hydrochloride] | < 600
COc1ccccc1Cn1cc(-c2csc3ccccc23)nc1N [Example 17, 4-Benzo[b]thiophene-3-yl-1-(2-methoxybenzyl)-1H-imidazole-2-ylamine hydrochloride] | < 600
COc1cccc(OC)c1Cn1cc(-c2ccc(F)cc2)nc1N [Example 18, 1-(2,6-Dimethoxybenzyl)-4-(4-fluorophenyl)-1H-imidazole-2-ylamine] | < 600
COc1cccc(OC)c1Cn1cc(-c2cccs2)nc1N [Example 19, 1-(2,6-Dimethoxybenzyl)-4-thiophene-2-yl-1H-imidazole-2-ylamine] | < 600

Structure (SMILES) | Ki [nM]
COc1ccccc1Cn1cc(-c2ccsc2)nc1N [Example 20, 1-(2-Methoxybenzyl)-4-thiophene-3-yl-1H-imidazole-2-ylamine hydrochloride] | < 600
CCOC(=O)c1cn(Cc2ccccc2OC)c(N)n1 [Example 21, 2-Amino-1-(2-methoxybenzyl)-1H-imidazole-4-carboxylic acid ethyl ester] | > 600
COc1ccccc1Cn1cc(-c2ccc(OC(F)(F)F)cc2)nc1N [Example 22, 1-(2-Methoxybenzyl)-4-(4-trifluoromethoxyphenyl)-1H-imidazole-2-ylamine] | < 600
COc1cccc(-c2cn(Cc3ccccc3OC)c(N)n2)c1 [Example 23, 1-(2-Methoxybenzyl)-4-(3-methoxyphenyl)-1H-imidazole-2-ylamine] | < 600
COc1ccccc1Cn1cc(C23CC4CC(CC(C4)C2)C3)nc1N [Example 24, 4-Adamantane-1-yl-1-(2-methoxybenzyl)-1H-imidazole-2-ylamine] | < 600
COc1cccc(OC)c1Cn1cc(-c2ccc(C#N)cc2)nc1N [Example 25, 4-[2-Amino-1-(2,6-dimethoxybenzyl)-1H-imidazole-4-yl]benzonitrile hydrochloride] | < 600
COc1ccccc1-c1cn(Cc2c(OC)cccc2OC)c(N)n1 [Example 26, 1-(2,6-Dimethoxybenzyl)-4-(2-methoxyphenyl)-1H-imidazole-2-ylamine hydrochloride] | < 600
COc1ccccc1Cn1cc(-c2ccc(C)cc2)nc1N [Example 27, 1-(2-Methoxybenzyl)-4-p-tolyl-1H-imidazole-2-ylamine] | < 600
COc1cccc(Cl)c1Cn1cc(-c2ccsc2)nc1N [Example 28, 1-(2-Chloro-6-methoxybenzyl)-4-thiophene-3-yl-1H-imidazole-2-ylamine] | < 600
COc1cccc(Cl)c1Cn1cc(-c2ccc(OC(F)(F)F)cc2)nc1N [Example 29, 1-(2-Chloro-6-methoxybenzyl)-4-(4-trifluoromethoxyphenyl)-1H-imidazole-2-ylamine] | < 600
CCOC(=O)c1cc(-c2cn(Cc3ccccc3OC)c(N)n2)on1 [Example 30, 5-[2-Amino-1-(2-methoxybenzyl)-1H-imidazole-4-yl]isoxazole-3-carboxylic acid ethyl ester] | > 600
COc1cccc(F)c1Cn1cc(-c2ccsc2)nc1N [Example 31, 1-(2-Fluoro-6-methoxybenzyl)-4-thiophene-3-yl-1H-imidazole-2-ylamine] | < 600
COc1ccc(-c2cn(Cc3c(Cl)cccc3OC)c(N)n2)cc1 [Example 32, 1-(2-Chloro-6-methoxybenzyl)-4-(4-methoxyphenyl)-1H-imidazole-2-ylamine] | < 600
COc1cccc(F)c1Cn1cc(-c2ccc(C#N)cc2)nc1N [Example 33, 4-[2-Amino-1-(2-fluoro-6-methoxybenzyl)-1H-imidazole-4-yl]benzonitrile] | < 600
COc1cccc(Cl)c1Cn1cc(-c2ccc(Cl)cc2)nc1N [Example 34, 1-(2-Chloro-6-methoxybenzyl)-4-(4-chlorophenyl)-1H-imidazole-2-ylamine] | < 600
COc1ccccc1Cn1cc(-c2ccc(Cl)cc2Cl)nc1N [Example 35, 4-(2,4-Dichlorophenyl)-1-(2-methoxybenzyl)-1H-imidazole-2-ylamine hydrochloride] | < 600
COc1ccccc1Cn1cc(-c2ccc(C)o2)nc1N [Example 36, 1-(2-Methoxybenzyl)-4-(5-methylfuran-2-yl)-1H-imidazole-2-ylamine] | < 600
COc1cccc(Cl)c1Cn1cc(-c2cccs2)nc1N [Example 37, 1-(2-Chloro-6-methoxybenzyl)-4-thiophene-2-yl-1H-imidazole-2-ylamine] | < 600
